Measured values: ChEMBL document CHEMBL3301472, “MMV Malaria Box HIV and cytotoxicity screening”

Legend:
Format in all cases: toxicity, cell-based
[1] = MMV: MTT Cytotoxicity Assay Day 3 pi, U87-CD4-CCR5 cells, % cell death @ 5mM compound; settings: human, u87-cd4-ccr5, 5000 µM
[2] = MMV: MTT Cytotoxicity Assay Day 3 pi, U87-CD4-CXCR4 cells, % cell death @ 5mM compound; settings: human, u87-cd4-cxcr4, 5000 µM
[3] = MMV: MTT Cytotoxicity Assay Day 7 pi of Assay #6 (compound washed out Day 1 pi), U87-CD4-CCR5 cells, % cell death @ 5mM compound; settings: human, u87-cd4-ccr5, 5000 µM
[4] = MMV: MTT Cytotoxicity Assay Day 7 pi of Assay #7 (compound washed out Day 1 pi), U87-CD4-CXCR4 cells, % cell death @ 5mM compound; settings: human, u87-cd4-cxcr4, 5000 µM
[5] = MMV: MTT Cytotoxicity Assay Day 7 pi of Assay #10 (NO washout), U87-CD4-CCR5 cells, % cell death @ 5mM compound; settings: human, u87-cd4-ccr5, 5000 µM
[6] = MMV: MTT Cytotoxicity Assay Day 7 pi of Assay #11 (NO washout), U87-CD4-CXCR4 cells, % cell death @ 5mM compound; settings: human, u87-cd4-cxcr4, 5000 µM

FC(F)(F)c1cccc(CNC2CCN(CCc3ccccc3)CC2)c1
% Cell Death [1]: -16 | % Cell Death [2]: 31 | % Cell Death [3]: 30 | % Cell Death [4]: -15 | % Cell Death [5]: -16 | % Cell Death [6]: 24

Cc1ccc(Nc2nc(N)c3ccccc3n2)cc1Cl
% Cell Death [1]: -34 | % Cell Death [2]: 36 | % Cell Death [3]: -17 | % Cell Death [4]: -9 | % Cell Death [5]: -2 | % Cell Death [6]: -31

CC(=O)NCCc1nc2ccccc2n1Cc1ccc(C(C)C)cc1
% Cell Death [1]: -2 | % Cell Death [2]: 15 | % Cell Death [3]: 34 | % Cell Death [4]: -3 | % Cell Death [5]: 13 | % Cell Death [6]: 14

COc1cccc(C(=O)Nc2ccc(-c3nc4ccccc4[nH]3)cc2)c1
% Cell Death [1]: 27 | % Cell Death [2]: 39 | % Cell Death [3]: 3 | % Cell Death [4]: 7 | % Cell Death [5]: 34 | % Cell Death [6]: 35

OCCNc1nc(Nc2ccc(Cl)c(Cl)c2)nc2ccccc12
% Cell Death [1]: 41 | % Cell Death [2]: 30 | % Cell Death [3]: -18 | % Cell Death [4]: -3 | % Cell Death [5]: 51 | % Cell Death [6]: -59

O=C(NC(c1ccccc1)c1ccc2cccnc2c1O)c1ccccc1 (centres undefined)
% Cell Death [1]: -19 | % Cell Death [2]: 12 | % Cell Death [3]: 43 | % Cell Death [4]: -26 | % Cell Death [5]: 122 | % Cell Death [6]: 39

COCCNCC(O)Cn1c2ccc(Cl)cc2c2cc(Cl)ccc21 (centres undefined)
% Cell Death [1]: 29 | % Cell Death [2]: 30 | % Cell Death [3]: 14 | % Cell Death [4]: -16 | % Cell Death [5]: 28 | % Cell Death [6]: 15

OC1=C2C(=Nc3ccccc3SC2c2ccccc2)c2ccccc21 (centres undefined)
% Cell Death [1]: 37 | % Cell Death [2]: 20 | % Cell Death [3]: -22 | % Cell Death [4]: 24 | % Cell Death [5]: -15 | % Cell Death [6]: -20

OC1=C2C(=Nc3ccccc3SC2c2ccc(Br)cc2)c2ccccc21 (centres undefined)
% Cell Death [1]: 11 | % Cell Death [2]: 31 | % Cell Death [3]: -10 | % Cell Death [4]: 7 | % Cell Death [5]: 30 | % Cell Death [6]: 0

COc1ccc2nc(C)cc(Nc3ccc(Cl)cc3)c2c1
% Cell Death [1]: 106 | % Cell Death [2]: 100 | % Cell Death [3]: 103 | % Cell Death [4]: 90 | % Cell Death [5]: 121 | % Cell Death [6]: 117

CCCCc1ccc(NS(=O)(=O)c2cc3c4c(c2)CCN4C(=O)CC3)cc1
% Cell Death [1]: 6 | % Cell Death [2]: 20 | % Cell Death [3]: 47 | % Cell Death [4]: 1 | % Cell Death [5]: 85 | % Cell Death [6]: 93

Cc1cc(Nc2ccc(C)c(Cl)c2)n2nc(C(F)(F)F)nc2n1
% Cell Death [1]: 11 | % Cell Death [2]: 28 | % Cell Death [3]: -35 | % Cell Death [4]: -28 | % Cell Death [5]: 42 | % Cell Death [6]: 10

O=C(NC1CCN(Cc2ccccc2)CC1)c1cc(C(=O)NC2CCN(Cc3ccccc3)CC2)cc(C(=O)NC2CCN(Cc3ccccc3)CC2)c1
% Cell Death [1]: 12 | % Cell Death [2]: 60 | % Cell Death [3]: 14 | % Cell Death [4]: 72 | % Cell Death [5]: 48 | % Cell Death [6]: 71

COc1ccccc1N1CCN(C(CNS(=O)(=O)c2ccc(Cl)cc2)c2cccnc2)CC1 (centres undefined)
% Cell Death [1]: 109 | % Cell Death [2]: 94 | % Cell Death [3]: 83 | % Cell Death [4]: 81 | % Cell Death [5]: 130 | % Cell Death [6]: 105

CCN1CCN(c2c(C(=O)c3ccccc3)cnc3cc(OC)c(OC)cc23)CC1
% Cell Death [1]: 43 | % Cell Death [2]: 85 | % Cell Death [3]: 23 | % Cell Death [4]: -11 | % Cell Death [5]: 47 | % Cell Death [6]: 99

CCOc1cc(CNC(C)C(O)c2ccccc2)cc(Cl)c1OCC (centres undefined)
% Cell Death [1]: 40 | % Cell Death [2]: 89 | % Cell Death [3]: 32 | % Cell Death [4]: 25 | % Cell Death [5]: 67 | % Cell Death [6]: 73

O=C(CCl)NCCOc1ccc(Cl)cc1Cl
% Cell Death [1]: 15 | % Cell Death [2]: 28 | % Cell Death [3]: -19 | % Cell Death [4]: -8 | % Cell Death [5]: 12 | % Cell Death [6]: 6

COc1cc(SC)ccc1C(=O)N1CCCC(C)C1 (centres undefined)
% Cell Death [1]: 9 | % Cell Death [2]: 28 | % Cell Death [3]: 12 | % Cell Death [4]: -26 | % Cell Death [5]: -5 | % Cell Death [6]: -41

CCCc1c(CC)c(=N)c2ccccc2n1C
% Cell Death [1]: 33 | % Cell Death [2]: 21 | % Cell Death [3]: -10 | % Cell Death [4]: -9 | % Cell Death [5]: -7 | % Cell Death [6]: -23

COc1ccc2c(c1OC)C(=O)N1c3ccccc3N=C(c3ccc(C)cc3)CC21 (centres undefined)
% Cell Death [1]: 87 | % Cell Death [2]: 72 | % Cell Death [3]: 17 | % Cell Death [4]: 1 | % Cell Death [5]: 78 | % Cell Death [6]: 102

CCn1nc(-c2ccc(C(=O)OC)cc2)nc2c(=O)n(C)c(=O)nc1-2
% Cell Death [1]: 1 | % Cell Death [2]: 21 | % Cell Death [3]: 6 | % Cell Death [4]: -23 | % Cell Death [5]: -2 | % Cell Death [6]: 18

COc1ccccc1CNC(=O)C1c2ccccc2C(=O)N(CC(C)C)C1c1cccs1 (centres undefined)
% Cell Death [1]: 108 | % Cell Death [2]: 23 | % Cell Death [3]: 67 | % Cell Death [4]: -8 | % Cell Death [5]: 60 | % Cell Death [6]: 43

CCCCNc1nc(NC(C)(C)C)nc(NC(C)(C)C)n1
% Cell Death [1]: -21 | % Cell Death [2]: 61 | % Cell Death [3]: 2 | % Cell Death [4]: 18 | % Cell Death [5]: -7 | % Cell Death [6]: -2

OC(CNC1CCCC1)Cn1c2ccccc2c2ccccc21 (centres undefined)
% Cell Death [1]: 10 | % Cell Death [2]: 31 | % Cell Death [3]: 2 | % Cell Death [4]: -15 | % Cell Death [5]: 7 | % Cell Death [6]: -3

O=C(Nc1ccc(N2CCCCC2)c(Cl)c1)c1ccc(Br)o1
% Cell Death [1]: 97 | % Cell Death [2]: 61 | % Cell Death [3]: 26 | % Cell Death [4]: 53 | % Cell Death [5]: 76 | % Cell Death [6]: 99

Oc1ccc(Br)cc1CN1CCN(Cc2ccc(Cl)cc2)CC1
% Cell Death [1]: 27 | % Cell Death [2]: 69 | % Cell Death [3]: 12 | % Cell Death [4]: 29 | % Cell Death [5]: 46 | % Cell Death [6]: 44

CC1CC2=C(CC1CNCCCN(C)C)C(C)(C)CCC2 (centres undefined)
% Cell Death [1]: -1 | % Cell Death [2]: 36 | % Cell Death [3]: -9 | % Cell Death [4]: 23 | % Cell Death [5]: 19 | % Cell Death [6]: -30

CCOc1ccc(CN2CCN(CC(O)COc3ccc(OCC(O)CN4CCN(Cc5ccc(OCC)cc5)CC4)cc3)CC2)cc1 (centres undefined)
% Cell Death [1]: -5 | % Cell Death [2]: 50 | % Cell Death [3]: 65 | % Cell Death [4]: 21 | % Cell Death [5]: 115 | % Cell Death [6]: -7

CCCCCn1c(=N)n(CC(O)COc2cccc(C)c2)c2ccccc21.Cl (centres undefined)
% Cell Death [1]: 99 | % Cell Death [2]: 71 | % Cell Death [3]: 65 | % Cell Death [4]: 60 | % Cell Death [5]: 115 | % Cell Death [6]: 110

CCOC(=O)C1=C(c2ccccc2)N=c2sc(=Cc3cc(C)n(-c4ccc(F)cc4)c3C)c(=O)n2C1c1cccc(OC)c1OC (centres undefined)
% Cell Death [1]: 18 | % Cell Death [2]: 45 | % Cell Death [3]: 5 | % Cell Death [4]: -3 | % Cell Death [5]: -17 | % Cell Death [6]: 20

CCCCC(O)(c1ccc(Cl)cc1)C(CN1CCOCC1)c1ccc(Cl)cc1.Cl (centres undefined)
% Cell Death [1]: -6 | % Cell Death [2]: 36 | % Cell Death [3]: -10 | % Cell Death [4]: -16 | % Cell Death [5]: 17 | % Cell Death [6]: 41

Cc1cccc(-n2ncc3c(O)nc(-n4nc(C)cc4NC(=O)c4cc5ccccc5o4)nc32)c1
% Cell Death [1]: 6 | % Cell Death [2]: 39 | % Cell Death [3]: 23 | % Cell Death [4]: 1 | % Cell Death [5]: 23 | % Cell Death [6]: 82

Oc1ccc2ccccc2c1CNc1nc2ccccc2[nH]1
% Cell Death [1]: 53 | % Cell Death [2]: 32 | % Cell Death [3]: -27 | % Cell Death [4]: -22 | % Cell Death [5]: 36 | % Cell Death [6]: 42

CCOc1cc2c(cc1OCC)C(c1cc(Cl)ccc1O)NCC2 (centres undefined)
% Cell Death [1]: 20 | % Cell Death [2]: 42 | % Cell Death [3]: -26 | % Cell Death [4]: 3 | % Cell Death [5]: 17 | % Cell Death [6]: 21

COc1ccc(C)c2sc(N(Cc3cccnc3)C(=O)c3ccc(C#N)cc3)nc12
% Cell Death [1]: -7 | % Cell Death [2]: 24 | % Cell Death [3]: -1 | % Cell Death [4]: -6 | % Cell Death [5]: 13 | % Cell Death [6]: -39

C[n+]1c2ccccc2nc2ccc(NCCO)cc21
% Cell Death [1]: -33 | % Cell Death [2]: 11 | % Cell Death [3]: 29 | % Cell Death [4]: -30 | % Cell Death [5]: 49 | % Cell Death [6]: 16

CCOc1ccccc1NC(=O)CN1CCN(C(=O)c2ccco2)CC1
% Cell Death [1]: -66 | % Cell Death [2]: -22 | % Cell Death [3]: 13 | % Cell Death [4]: 38 | % Cell Death [5]: 37 | % Cell Death [6]: 36

COc1ccc(CN2CCCC(C(=O)c3ccc(C(F)(F)F)cc3)C2)c(O)c1 (centres undefined)
% Cell Death [1]: 107 | % Cell Death [2]: 89 | % Cell Death [3]: 104 | % Cell Death [4]: 97 | % Cell Death [5]: 105 | % Cell Death [6]: 109

Brc1ccc(Nc2nc3ccccc3nc2Nc2ccc(Br)cc2)cc1
% Cell Death [1]: 15 | % Cell Death [2]: 20 | % Cell Death [3]: -14 | % Cell Death [4]: -10 | % Cell Death [5]: 28 | % Cell Death [6]: -26
